Measurements as given in ChEMBL document CHEMBL1201862, “PubChem BioAssay data set” (2004).
Calls of active or inactive are those of the source.

What was measured:
[1] = target: Botulinum neurotoxin type F (Clostridium botulinum, UniProt P30996); assay: High-throughput multiplex microsphere dose response for inhibitors of toxin protease, specifically Botulinum neurotoxin light chain F protease, compounds from Cherry Pick 02.; type: functional; settings: read-out: EC50_MICROM
[2] = target: Latent membrane protein 1 (Human herpesvirus 4 (strain B95-8), UniProt P03230); assay: LMP1 TES1 pathway selectivity over dsRED control – imaging, HEK293T, dual-color eGFP/dsRED, cherry-picks, selectivity assay for LMP1 NF-kB inhibitor project, dose response (AID 588398); type: functional, cell-based
[3] = target: T1, Endoribonuclease toxin MazF (Escherichia coli K-12, UniProt P0AE70); assay: activation of MazEF endoribonuclease cleavage – biochemical, fluorescence, single-stranded RNA substrate, uHTS hits, dose response (AID 588481); type: functional
T1 sequence (P0AE70 whole entry): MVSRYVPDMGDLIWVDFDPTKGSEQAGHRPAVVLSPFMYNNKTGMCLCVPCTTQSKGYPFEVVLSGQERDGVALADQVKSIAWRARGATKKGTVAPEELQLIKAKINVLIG

[4] = target: T2, Sentrin-specific protease 1 (Homo sapiens, UniProt Q9P0U3); assay: Dose response confirmation of small molecule inhibitors of the catalytic domain of the SUMO protease, SENP1 in a FRET assay.; type: functional; settings: read-out: IC50_Mean
[5] = target: T2, Sentrin-specific protease 1; assay: SENP1 catalytic domain blockers, concentration series – biochemical, kinetic FRET, dose response (AID 651697); type: functional; settings: read-out: IC50_Mean
[6] = target: T1, Endoribonuclease toxin MazF; assay: substrate-only fluorescence increase artefacts – biochemical, single-stranded RNase substrate, counter-screen for MazEF activator project, dose response (AID 588502); type: functional
[7] = target: T3, DNA repair protein RAD52 homolog (Homo sapiens, UniProt P43351); type: functional, biochemical
T3 sequence (P43351 whole entry): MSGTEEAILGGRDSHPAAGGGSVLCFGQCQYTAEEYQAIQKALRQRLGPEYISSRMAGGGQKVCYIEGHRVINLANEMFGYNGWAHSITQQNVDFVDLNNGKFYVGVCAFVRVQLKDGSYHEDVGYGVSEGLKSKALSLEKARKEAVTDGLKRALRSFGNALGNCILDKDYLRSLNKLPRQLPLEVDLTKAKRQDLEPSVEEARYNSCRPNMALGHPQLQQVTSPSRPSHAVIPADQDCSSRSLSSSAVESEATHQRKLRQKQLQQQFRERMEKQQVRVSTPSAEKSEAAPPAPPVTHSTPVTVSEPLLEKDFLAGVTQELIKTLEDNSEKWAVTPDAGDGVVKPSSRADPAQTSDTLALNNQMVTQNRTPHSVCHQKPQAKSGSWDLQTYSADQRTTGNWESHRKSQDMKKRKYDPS

[8] = Counterscreen for activators of the function of SWI/SNF related, matrix associated, actin dependent regulator of chromatin, subfamily a, member 2 (SMARCA2, BRM): Luminescence-based cell-based high throughput dose response assay to identify non-selective compounds using the VP16 reporter assay.; type: functional
[9] = target: T4, Low molecular weight phosphotyrosine protein phosphatase (Homo sapiens, UniProt P24666); type: functional; settings: read-out: IC50_Mean
[10] = target: T5, DNA repair and recombination protein RAD54-like (Homo sapiens, UniProt Q92698); assay: RAD54 Holliday junction migration blockers – biochemical, fluorescence, cherry-picked samples, dose series, confirmation (AID 651657); type: functional
T5 sequence (Q92698 whole entry): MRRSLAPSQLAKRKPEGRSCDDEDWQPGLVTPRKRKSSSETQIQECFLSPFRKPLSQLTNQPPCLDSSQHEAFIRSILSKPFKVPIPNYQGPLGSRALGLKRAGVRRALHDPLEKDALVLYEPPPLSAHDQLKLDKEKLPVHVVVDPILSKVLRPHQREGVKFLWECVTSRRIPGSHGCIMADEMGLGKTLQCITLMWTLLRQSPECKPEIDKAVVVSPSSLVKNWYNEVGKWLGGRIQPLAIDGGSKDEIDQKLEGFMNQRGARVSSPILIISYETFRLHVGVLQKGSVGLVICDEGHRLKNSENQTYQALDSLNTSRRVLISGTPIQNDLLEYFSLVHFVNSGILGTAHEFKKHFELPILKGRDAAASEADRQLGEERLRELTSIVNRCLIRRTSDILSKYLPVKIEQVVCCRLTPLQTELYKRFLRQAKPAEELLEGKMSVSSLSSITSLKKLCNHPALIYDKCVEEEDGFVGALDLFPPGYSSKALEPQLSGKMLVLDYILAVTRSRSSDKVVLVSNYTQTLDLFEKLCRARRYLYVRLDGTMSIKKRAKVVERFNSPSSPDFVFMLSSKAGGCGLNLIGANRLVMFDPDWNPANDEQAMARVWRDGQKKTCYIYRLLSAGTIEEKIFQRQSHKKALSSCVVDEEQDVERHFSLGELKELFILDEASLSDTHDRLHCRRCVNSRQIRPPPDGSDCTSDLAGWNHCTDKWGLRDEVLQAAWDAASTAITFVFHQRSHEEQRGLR

[11] = target: SWI/SNF-related matrix-associated actin-dependent regulator of chromatin subfamily A member 2 (Homo sapiens, UniProt P51531); assay: Luminescence-based cell-based high throughput dose response assay to identify activators of the function of SWI/SNF related, matrix associated, actin dependent regulator of chromatin, subfamily a, member 2 (SMARCA2, BRM).; type: functional
[12] = target: Tyrosine-protein phosphatase non-receptor type 22 (Homo sapiens, UniProt Q9Y2R2); assay: PTPN22 enzyme inhibitors – biochemical, fluorescence, LYP catalytic domain, selectivity assay for LMPTP inhibitor project, dose response (AID 652006); type: functional; settings: read-out: IC50_Mean
[13] = target: T4, Low molecular weight phosphotyrosine protein phosphatase; type: functional; settings: read-out: IC50_Mean; remark: listed apart in the source
[14] = target: T6, Diacylglycerol lipase-beta (Mus musculus, UniProt Q91WC9); assay: Late stage assay provider results from the probe development effort to identify inhibitors of diacylglycerol lipase, beta (DAGLb): LCMS-based biochemical dose response assay.; type: functional
[15] = target: Monoacylglycerol lipase ABHD6 (Mus musculus, UniProt Q8R2Y0); assay: Late stage assay provider results from the probe development effort to identify inhibitors of diacylglycerol lipase, beta (DAGLb): fluorescence-based dose-response biochemical gel-based competitive Activity-Based Protein Profiling (ABPP) inhibition of antitarget ABHD6 in vitro, set 2.; type: functional
[16] = target: T6, Diacylglycerol lipase-beta; assay: Late stage assay provider results from the probe development effort to identify inhibitors of diacylglycerol lipase, beta (DAGLb): fluorescence-based dose-response biochemical gel-based competitive Activity-Based Protein Profiling (ABPP) inhibition of DAGLb in vitro.; type: functional

T4 sequence (P24666 whole entry): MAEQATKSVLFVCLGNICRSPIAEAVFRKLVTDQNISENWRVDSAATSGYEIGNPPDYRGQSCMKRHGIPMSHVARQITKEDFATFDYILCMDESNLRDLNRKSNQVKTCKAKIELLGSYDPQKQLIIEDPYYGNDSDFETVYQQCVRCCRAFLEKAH
T6 sequence (Q91WC9 whole entry): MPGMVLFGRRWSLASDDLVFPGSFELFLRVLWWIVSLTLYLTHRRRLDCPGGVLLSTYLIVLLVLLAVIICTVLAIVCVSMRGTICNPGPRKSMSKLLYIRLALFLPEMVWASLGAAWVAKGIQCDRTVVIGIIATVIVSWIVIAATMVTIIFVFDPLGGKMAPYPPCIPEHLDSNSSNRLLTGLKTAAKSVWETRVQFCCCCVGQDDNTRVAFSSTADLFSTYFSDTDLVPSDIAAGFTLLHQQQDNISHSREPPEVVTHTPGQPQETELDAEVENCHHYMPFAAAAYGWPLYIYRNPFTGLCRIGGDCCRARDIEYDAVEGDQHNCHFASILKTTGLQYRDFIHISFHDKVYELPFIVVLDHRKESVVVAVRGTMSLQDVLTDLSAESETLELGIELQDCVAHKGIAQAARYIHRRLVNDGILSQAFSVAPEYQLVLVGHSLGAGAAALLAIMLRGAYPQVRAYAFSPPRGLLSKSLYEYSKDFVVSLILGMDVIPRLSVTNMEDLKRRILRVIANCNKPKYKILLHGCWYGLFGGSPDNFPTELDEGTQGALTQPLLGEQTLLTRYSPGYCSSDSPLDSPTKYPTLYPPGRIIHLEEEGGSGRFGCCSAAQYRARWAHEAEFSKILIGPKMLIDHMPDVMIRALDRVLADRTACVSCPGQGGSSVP
T2 sequence (Q9P0U3 whole entry, the tested form may be a part): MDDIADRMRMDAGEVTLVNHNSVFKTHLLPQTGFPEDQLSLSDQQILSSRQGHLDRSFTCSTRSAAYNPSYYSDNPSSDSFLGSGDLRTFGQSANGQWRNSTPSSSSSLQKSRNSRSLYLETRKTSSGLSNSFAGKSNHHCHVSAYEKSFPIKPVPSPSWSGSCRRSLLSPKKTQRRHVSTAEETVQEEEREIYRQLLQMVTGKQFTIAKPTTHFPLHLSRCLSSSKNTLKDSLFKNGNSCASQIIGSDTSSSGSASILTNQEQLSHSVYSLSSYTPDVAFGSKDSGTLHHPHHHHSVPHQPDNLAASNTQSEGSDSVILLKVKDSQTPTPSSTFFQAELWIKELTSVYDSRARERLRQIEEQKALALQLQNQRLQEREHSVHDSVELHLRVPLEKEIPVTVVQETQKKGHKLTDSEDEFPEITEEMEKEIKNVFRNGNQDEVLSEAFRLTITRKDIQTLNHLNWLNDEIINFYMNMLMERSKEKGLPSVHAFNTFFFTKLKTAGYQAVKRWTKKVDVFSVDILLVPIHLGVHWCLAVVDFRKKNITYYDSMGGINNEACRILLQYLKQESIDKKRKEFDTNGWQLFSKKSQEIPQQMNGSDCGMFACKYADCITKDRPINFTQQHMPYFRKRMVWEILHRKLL
Sequence of Monoacylglycerol lipase ABHD6 (Q8R2Y0 whole entry): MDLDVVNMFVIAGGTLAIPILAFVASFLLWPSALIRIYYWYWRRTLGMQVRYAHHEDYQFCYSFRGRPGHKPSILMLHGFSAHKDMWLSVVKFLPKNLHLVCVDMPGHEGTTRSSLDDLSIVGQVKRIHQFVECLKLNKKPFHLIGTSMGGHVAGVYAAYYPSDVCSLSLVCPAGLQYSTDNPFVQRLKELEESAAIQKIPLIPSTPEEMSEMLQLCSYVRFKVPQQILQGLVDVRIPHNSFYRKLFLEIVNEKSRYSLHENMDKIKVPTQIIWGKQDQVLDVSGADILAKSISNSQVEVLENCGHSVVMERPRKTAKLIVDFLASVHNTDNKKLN
Sequence of SWI/SNF-related matrix-associated actin-dependent regulator of chromatin subfamily A member 2 (P51531 whole entry, the tested form may be a part): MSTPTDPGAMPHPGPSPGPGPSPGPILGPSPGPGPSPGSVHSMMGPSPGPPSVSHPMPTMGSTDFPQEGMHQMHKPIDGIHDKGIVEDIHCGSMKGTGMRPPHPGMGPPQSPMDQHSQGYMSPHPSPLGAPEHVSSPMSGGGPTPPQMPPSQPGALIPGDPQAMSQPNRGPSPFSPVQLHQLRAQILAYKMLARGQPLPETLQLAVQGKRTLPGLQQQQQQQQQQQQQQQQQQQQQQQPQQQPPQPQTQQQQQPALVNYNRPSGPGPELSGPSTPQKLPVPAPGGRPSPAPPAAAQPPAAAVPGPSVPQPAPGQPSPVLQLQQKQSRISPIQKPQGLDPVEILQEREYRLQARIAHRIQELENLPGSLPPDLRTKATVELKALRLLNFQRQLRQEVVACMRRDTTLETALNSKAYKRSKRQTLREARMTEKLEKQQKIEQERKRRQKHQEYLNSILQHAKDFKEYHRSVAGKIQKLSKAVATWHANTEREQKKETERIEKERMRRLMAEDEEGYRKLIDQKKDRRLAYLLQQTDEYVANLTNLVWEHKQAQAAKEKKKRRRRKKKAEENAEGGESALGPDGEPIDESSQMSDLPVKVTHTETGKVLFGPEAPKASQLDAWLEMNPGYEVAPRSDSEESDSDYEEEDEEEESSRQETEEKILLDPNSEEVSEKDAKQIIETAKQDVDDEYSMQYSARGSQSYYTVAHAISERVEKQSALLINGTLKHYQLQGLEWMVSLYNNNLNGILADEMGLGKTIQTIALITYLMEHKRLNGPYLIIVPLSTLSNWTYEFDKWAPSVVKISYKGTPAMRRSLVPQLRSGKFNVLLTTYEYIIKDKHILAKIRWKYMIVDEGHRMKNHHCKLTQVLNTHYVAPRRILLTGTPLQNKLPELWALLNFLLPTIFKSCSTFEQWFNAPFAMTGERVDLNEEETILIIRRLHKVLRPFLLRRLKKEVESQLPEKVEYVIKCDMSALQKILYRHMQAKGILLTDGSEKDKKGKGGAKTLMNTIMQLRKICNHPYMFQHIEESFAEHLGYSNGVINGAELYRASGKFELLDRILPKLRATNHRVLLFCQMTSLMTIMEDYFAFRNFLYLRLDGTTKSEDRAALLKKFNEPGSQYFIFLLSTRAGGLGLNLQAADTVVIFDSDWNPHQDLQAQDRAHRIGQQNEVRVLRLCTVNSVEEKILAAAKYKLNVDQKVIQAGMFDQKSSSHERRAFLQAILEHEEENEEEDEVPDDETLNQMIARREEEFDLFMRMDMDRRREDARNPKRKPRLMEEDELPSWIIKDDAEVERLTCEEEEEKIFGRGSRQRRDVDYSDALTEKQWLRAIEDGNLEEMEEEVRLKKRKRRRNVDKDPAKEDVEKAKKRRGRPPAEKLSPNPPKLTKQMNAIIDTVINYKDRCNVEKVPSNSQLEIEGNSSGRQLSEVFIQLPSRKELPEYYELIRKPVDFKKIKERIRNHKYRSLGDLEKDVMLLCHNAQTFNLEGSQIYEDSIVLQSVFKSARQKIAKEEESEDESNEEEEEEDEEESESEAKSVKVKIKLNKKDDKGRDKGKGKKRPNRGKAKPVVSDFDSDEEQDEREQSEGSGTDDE
Sequence of Botulinum neurotoxin type F (P30996 1-436 limits assumed): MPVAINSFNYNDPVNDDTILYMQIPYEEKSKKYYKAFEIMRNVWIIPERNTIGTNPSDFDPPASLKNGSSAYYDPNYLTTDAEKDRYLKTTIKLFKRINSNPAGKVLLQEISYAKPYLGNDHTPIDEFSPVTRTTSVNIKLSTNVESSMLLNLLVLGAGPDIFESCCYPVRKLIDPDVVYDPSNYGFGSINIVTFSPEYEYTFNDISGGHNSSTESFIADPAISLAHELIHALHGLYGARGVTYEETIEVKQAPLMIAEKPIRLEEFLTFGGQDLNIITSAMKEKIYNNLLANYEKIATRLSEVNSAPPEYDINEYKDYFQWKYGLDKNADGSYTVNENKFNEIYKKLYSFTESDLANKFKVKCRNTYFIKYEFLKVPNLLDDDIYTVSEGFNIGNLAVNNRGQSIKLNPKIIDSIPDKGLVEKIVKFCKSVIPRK
Sequence of Tyrosine-protein phosphatase non-receptor type 22 (Q9Y2R2 whole entry, the tested form may be a part): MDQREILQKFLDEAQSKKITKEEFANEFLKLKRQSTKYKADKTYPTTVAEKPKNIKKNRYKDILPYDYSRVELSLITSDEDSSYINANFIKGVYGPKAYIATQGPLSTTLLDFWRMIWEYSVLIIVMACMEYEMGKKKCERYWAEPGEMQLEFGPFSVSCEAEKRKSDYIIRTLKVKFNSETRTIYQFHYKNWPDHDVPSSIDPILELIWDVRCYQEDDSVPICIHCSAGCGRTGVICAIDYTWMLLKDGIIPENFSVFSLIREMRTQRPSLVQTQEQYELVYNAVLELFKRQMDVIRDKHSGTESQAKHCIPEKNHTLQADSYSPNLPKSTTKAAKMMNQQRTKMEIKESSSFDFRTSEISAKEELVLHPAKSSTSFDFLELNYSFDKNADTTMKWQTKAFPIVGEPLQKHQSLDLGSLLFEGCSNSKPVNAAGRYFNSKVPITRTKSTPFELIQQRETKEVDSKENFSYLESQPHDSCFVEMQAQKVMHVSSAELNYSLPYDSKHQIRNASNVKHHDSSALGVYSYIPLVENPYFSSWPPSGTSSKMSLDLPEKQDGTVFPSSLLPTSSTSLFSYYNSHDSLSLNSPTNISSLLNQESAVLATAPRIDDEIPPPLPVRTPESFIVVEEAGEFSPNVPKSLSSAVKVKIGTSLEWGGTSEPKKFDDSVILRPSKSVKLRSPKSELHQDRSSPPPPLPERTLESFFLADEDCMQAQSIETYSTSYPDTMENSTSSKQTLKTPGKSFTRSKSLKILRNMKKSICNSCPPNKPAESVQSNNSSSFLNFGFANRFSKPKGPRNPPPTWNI
Sequence of Latent membrane protein 1 (P03230 whole entry): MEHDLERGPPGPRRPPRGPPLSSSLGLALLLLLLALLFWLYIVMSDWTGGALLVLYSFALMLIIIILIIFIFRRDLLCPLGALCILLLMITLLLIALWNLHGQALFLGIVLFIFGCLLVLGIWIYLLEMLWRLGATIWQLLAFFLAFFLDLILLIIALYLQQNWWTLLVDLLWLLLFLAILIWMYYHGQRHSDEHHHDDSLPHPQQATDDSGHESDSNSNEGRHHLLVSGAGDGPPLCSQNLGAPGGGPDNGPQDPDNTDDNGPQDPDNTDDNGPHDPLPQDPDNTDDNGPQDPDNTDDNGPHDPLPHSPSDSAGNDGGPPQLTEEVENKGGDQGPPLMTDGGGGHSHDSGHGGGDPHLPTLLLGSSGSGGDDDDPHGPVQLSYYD

In the case of `COc1ccc(C(=O)OCC(=O)c2c[nH]c3ccccc23)cc1OC`, the EC50 [1] is reported as > 20 µM (inactive) and the AC50 [2] is reported as 164 µM (active).

For `CN(N=Cc1cccc2cccnc12)c1ccc([N+](=O)[O-])cc1[N+](=O)[O-]`, the EC50 [3] was > 99 µM (inactive), the IC50 [4] was 4.08 µM (active) and the IC50 [5] was 8.19 µM (active). The EC50 [6] was 3.55 µM (active).

For `Cc1nccc2cc3[nH]c4ccccc4c3cc12`, the AC50 [7] was 1.96 µM (active), the EC50 [8] was > 91.2 µM (inactive) and the IC50 [9] was 3.18 µM (active). The AC50 [10] was 2.49 µM (active), the EC50 [11] was 5.87 µM (active) and the IC50 [12] was 52.5 µM (inactive). For the same compound, the IC50 [13] was 2.59 µM (active).

With `COc1ccccc1-c1ccc(-c2cn(C(=O)N3CCCCC3Cc3ccccc3)nn2)cc1` (stereo unspecified) the IC50 [14] was 0.1 µM (active), the IC50 [15] was 0.001 µM (active) and the IC50 [16] was 0.056 µM (active).
